Assay results: patent US8871971B2, “Protection of normal cells” (priority 2002, dated 2014)

Experiments:
[1] = tested on: Sulindac reductase activity in calf liver; test: Sulindac reductase activity in calf liver fractions; assay type: biochemical, bovine; conditions: mitochondria, S-100 and S-100 pellet of liver; preliminary evidence
Procedure: Mammalian enzymes. […] To prepare mitochondria, the S10 pellets were suspended in 20 ml buffer A. […] The tubes were centrifuged at 24,000×g for 24 min. The pellets were resuspended in buffer A and centrifuged at 20,000×g for 15 min. The pellets (containing mitochondria) were suspended in 2 ml of buffer A. All fractions were stored at -80° C.

[2] = tested on: Membrane Msr (mem-R,S-Msr); test: Extraction reductase assay, sulindac as substrate; assay type: biochemical, E. coli; conditions: for Nmoles formed: 35 μg of membrane fraction
Normal Lung cells [3] = test: Viability of normal lung cells exposed to TBHP (MTS assay); assay type: cell-based; conditions: 500 μM for 48 hr, then TBHP 2 hr
Procedure: Normal lung cells were treated with 500 μM sulindac-(R+S; near 50% each), 500 μM sulindac-R (>99% R; <1% S) or 500 μM sulindac-S (>99% S; <1% R) for 48 hr. The sulindac-R and sulindac-S samples were obtained from a racemic mixture of epimers using a chiral column analogous to the process described above. The cells were washed and then exposed to the indicated concentration of tert-Butyl Hydroperoxide (TBHP) for 2 hr. Cell viability was measured using the standard MTS assay. A background absorbance of 0.12 was subtracted from average of four replicate samples. The data are plotted as a bar graph because the concentrations are not in equal intervals. The error bars are the SEM of four replicate samples. The data are presented on three separate graphs using the untreated samples from that plate.

rat hearts = test: Ischemia/reperfusion in Langendorff heart, LDH release; assay type: in vivo, rats; conditions: 0.1 mg in diet for 2 days; ischemia 45 minutes, reperfusion 2 hours
Procedure: […]. […] The hearts were removed, exposed to ischemia for 45 minutes and then perfused for 2 hours (reperfusion) using a Langendorff procedure. The cellular damage was measured by assaying for the release of lactic dehydrogenase (LDH).

Cancer Lung cells = test: Conversion of sulindac epimers to the sulfide in cells; assay type: in vitro ADME; conditions: 200 μM epimer, 4 hours, serum-free medium
Procedure: (§1) After incubation, the cells are collected, rinsed and lysed with acetonitrile. The cytosolic contents are separated on a C-18 column.

[4] = tested on: Cancer Skin (skin SCC) cells; test: as above; assay type: in vitro ADME; conditions: 200 μM epimer, 4 hours, serum-free medium
Procedure: as §1

HeLa cells = test: as above; assay type: in vitro ADME; conditions: 200 μM epimer, 4 hours, serum-free medium
Procedure: as §1

Normal Cardiomyocyte = test: as above; assay type: in vitro ADME; conditions: 200 μM epimer, 4 hours, serum-free medium
Procedure: as §1

Normal Lung cells [5] = test: as above; assay type: in vitro ADME; conditions: 200 μM epimer, 4 hours, serum-free medium
Procedure: as §1

MsrA [6] = target: T1, MsrA (Escherichia coli, UniProt P0A744); test: Reductase assay with TLC of products; conditions: 100 nmoles substrate, 3 μg MsrA, 15 mM DTT, 2 hours 37° C.
Procedure: (§2) Reductase assay and thin layer chromatography (TLC). […] Incubation was carried out for 2 hours at 37° C., at the end of which the duplicate samples were combined and dried in a speed-vacuum unit at room temperature. The residue was suspended in 50 μl of ethanol, which was then loaded onto a silica gel TLC plate. The plate was developed with butanol: acetic acid:water (60:15:25) as the solvent. The compounds were visualized by their yellow color.

MsrB [7] = target: T2, MsrB (Escherichia coli, UniProt P0A746); test: Reductase assay with TLC of products; conditions: 100 nmoles substrate, 21 μg MsrB, 15 mM DTT, 2 hours 37° C.
Procedure: as §2

Drosophila = test: Survival of flies exposed to paraquat oxidative stress; assay type: in vivo; conditions: for Flies alive: 2.5 mM paraquat, 2 mM sulindac; for Survival rate: 10 mM paraquat
Procedure: Paraquat is a cytotoxic compound known to form superoxide radicals intracellularly. Three different concentrations of paraquat (i.e., 2.5 mM, 5 mM and 10 mM) were tested. […] After 3 days at 25° C., flies were transferred to test vials for counting.

PC-12 cells = test: Viability of PC-12 cells treated with MPP+ (trypan blue exclusion); assay type: cell-based; conditions: for Dead cells (%) Exp 1 / Dead cells (%) Exp 2: 0.2 mM MPP+ 24 h
G93A transgenic mice = test: G93A SOD1 transgenic mouse model of familial ALS; assay type: in vivo
Procedure: Transgenic mice expressing a mutant form of SOD similar to that found in human ALS patients were used for this study. Transgenic male mice with a G93A human SOD1 (G1H/+) mutation (B6SJL-TgN (SOD1-G93A)1 Gur; Jackson Laboratories, ME) were used to breed with female B6SJL mice (Jackson Laboratories, ME). The F1 generations were genotyped for the G93A mutation with polymerase chain reaction (PCR) using tail DNA, and two specific primers from the SOD1 gene.
Motor performance was assessed by Rotarod testing for each group and survival time was recorded.
Motor function testing. Mice were trained for 2-3 days to become acquainted with the Rotarod apparatus (Columbus instruments, Columbus, Ohio). Rotarod performances were assessed in G93A mice starting at 60 days of age. The testing began with placing the mice on a rod that rotates at 12 rpms. The time period that the mice stayed on the rod before falling off was recorded as a measurement of the competence of their motor function. Three trials were performed, and the best result of the three trials was recorded representing the status of the motor performance. Mice were tested twice a week until they could no longer perform the task.
Survival times. The initial sign of disease in G93A transgenic mice is a resting tremor that progresses to gait impairment, asymmetrical or symmetrical paralysis of the hind limbs, and ultimately complete paralysis at the end stage. Mice were sacrificed when they were unable to roll over within 20 seconds after being pushed on their side. This time point was determined to be the time of survival, at which time the mice were sacrificed.
Light microscopic immunocytochemistry. Mice were perfused transcardially with cold 0.1M phosphate-buffered saline (PBS) for 1 minute followed by cold 4% paraformaldehyde in PBS for 10 minutes. The spinal cords were removed rapidly, blocked coronally, and post-fixed in 4% paraformaldehyde in PBS for 6 hours. Blocks were cryo-protected in 30% sucrose for 24 hours and were sectioned on a cryostat at a thickness of 35 micrometers. All protocols were conducted within NIH guidelines for animal research and were approved by the Institutional Animal Care and Use Committee (IACUC).
Serial transverse sections (50 μm thick) were cut on a cryostat and collected for Nissl staining. Every fourth section was analyzed for neuronal volume and number using the optical fractionator and nucleator probes of the Stereo Investigator System (Microbrightfield, Colchester, Vt.). Six tissue sections of the lumbar spinal cord from each mouse were analyzed. All cells were counted from within the ventral horn below a horizontal line across the gray matter through the ventral border of the central canal. Photomicrographs were taken on a Zeiss Axiophot II microscope.
Statistical analysis. Statistical analysis of survival was performed using Kaplan-Meier test for survival measured in postnatal days, Fisher's Test for mean age of death analysis, and Scheffe test for motor performance.

MsrA [8] = target: T1, MsrA; test: Extraction reductase assay, sulindac as substrate; conditions: 250 ng MsrA
Source text: (§3) Bacterial enzymes. […] The enzyme preparations had specific activities similar those reported earlier.

MsrB [9] = target: T2, MsrB; test: Extraction reductase assay, sulindac as substrate; conditions: 10 μg MsrB
Source text: as §3

fRMsr = fRMsr (Escherichia coli, UniProt P76270); test: Extraction reductase assay, sulindac as substrate; conditions: 290 μg fRMsr
Source text: as §3

fSMsr = test: Extraction reductase assay, sulindac as substrate; conditions: 200 μg fSMsr
Source text: as §3

MsrA1 = test: Extraction reductase assay, sulindac as substrate; conditions: 40 μg MsrA1
Source text: as §3

MsrA from E. coli = MsrA from E. coli (Escherichia coli, UniProt P0A744); test: Reductase assay (NADPH oxidation): reduction of sulindac to sulindac sulfide by MsrA
Procedure: Reductase assay. […] Incubations were performed at 37° C. for various times.
At the end of incubation, 500 μl of 0.5 M Bis-Tris-Cl pH 5.5 and 3 ml of ethyl acetate were added. The tubes were mixed (vortexed) for 5 seconds (3 times). After separation, the organic phase was removed and another 3 ml of ethyl acetate were added. After mixing the organic phase was again removed.

[10] = 0.1 mM sulindac 48 h pretreatment
[11] = 0.2 mM sulindac 48 h pretreatment
[12] = 0.5 mM sulindac 48 h pretreatment
[13] = 0.5 mM sulindac pretreatment, 0.2 mM MPP+
[14] = Tube 2: no MsrA, sulindac 5 μl (0.2M), thioredoxin 3 μl
[15] = Tube 3: MsrA 1 μl (100 ng/μl), 20 min
[16] = Tube 4: MsrA 2 μl (100 ng/μl), 20 min
[17] = Tube 5: MsrA 4 μl (100 ng/μl), 20 min
[18] = Tube 7: MsrA 2 μl (100 ng/μl), 10 min
[19] = Tube 8: MsrA 2 μl (100 ng/μl), 30 min

T2 sequence (P0A746 whole entry): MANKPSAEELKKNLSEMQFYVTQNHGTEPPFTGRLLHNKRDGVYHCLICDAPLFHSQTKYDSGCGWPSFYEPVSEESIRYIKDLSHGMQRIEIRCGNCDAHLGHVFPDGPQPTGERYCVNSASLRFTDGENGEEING
T1 sequence (P0A744 whole entry): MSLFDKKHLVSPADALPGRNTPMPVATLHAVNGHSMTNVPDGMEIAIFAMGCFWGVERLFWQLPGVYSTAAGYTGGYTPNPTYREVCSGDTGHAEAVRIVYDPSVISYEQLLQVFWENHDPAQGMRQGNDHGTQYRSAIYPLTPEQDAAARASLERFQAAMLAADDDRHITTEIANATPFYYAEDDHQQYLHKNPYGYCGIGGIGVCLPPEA
Sequence of MsrA from E. coli (P0A744 whole entry): as above
Sequence of fRMsr (P76270 whole entry): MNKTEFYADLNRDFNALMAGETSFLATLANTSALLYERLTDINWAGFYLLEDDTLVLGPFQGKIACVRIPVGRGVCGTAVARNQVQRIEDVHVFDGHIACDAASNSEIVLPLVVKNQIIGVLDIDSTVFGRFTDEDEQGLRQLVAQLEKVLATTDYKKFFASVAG

Question: Which “Effect of added excess Met(O) epimer on sulindac reductase activity” value [1] does the source give for C[S@@+]([O-])CC[C@H](N)C(=O)O [Met-R—(O)] here?
Answer: only a slight effect

Question: How did the “Effect of added excess Met(O) epimer on sulindac reductase activity” value [1] turn out when C[S+]([O-])CC[C@H](N)C(=O)O (stereo partly shown) [Met-S—(O)] was run?
Answer: inhibited the activity in all three fractions

Question: With CC1=C(CC(=O)O)c2cc(F)ccc2/C1=C\c1ccc([S@@+](C)[O-])cc1 [R-epimer, R-sulindac sulfoxide] as the molecule, how does the Nmoles formed [2] read?
Answer: 2.41 nmol

Question: What about the “Protection against TBHP compared with other forms” value (Normal Lung cells [3]) of the same molecule?
Answer: protects better as compared to sulindac-(R+S) or Sulindac-S

Question: And the “TBHP concentration up to which protection is seen” value (Normal Lung cells [3])?
Answer: 340 µM

Question: What about the “Protection of hearts from ischemia/reperfusion damage (LDH release)” value (rat hearts) of the same molecule?
Answer: protects their hearts from oxidative damage

Question: Which results are given for CC1=C(CC(=O)O)c2cc(F)ccc2/C1=C\c1ccc([S@+](C)[O-])cc1 [S-epimer, S-sulindac sulfoxide]?
Answer: Amount formed (picomoles) (Cancer Lung cells): 17.7 picomoles; Amount formed (picomoles) [4]: 57 picomoles; Amount formed (picomoles) (HeLa cells): 7.9 picomoles; Amount formed (picomoles) (Normal Cardiomyocyte): 120.9 picomoles; Amount formed (picomoles) (Normal Lung cells [5]): 35 picomoles; TBHP concentration at which error bars begin to overlap (Normal Lung cells [3]): ~220 µM; TBHP concentration up to which protection is seen (Normal Lung cells [3]): ~180 µM

Question: For CSCCC(NC(=O)CC1=C(C)/C(=C/c2ccc([S+](C)[O-])cc2)c2ccc(F)cc21)C(=O)O (stereo not shown) [SMO], which “Substrate for MsrA (reduction products on TLC)” value (MsrA [6]) is on record?
Answer: substrate for MsrA

Question: What about the “Substrate for MsrB (reduction products on TLC)” value (MsrB [7]) of the same molecule?
Answer: substrate for MsrB

Question: What does the source list for CC1=C(CC(=O)O)c2cc(F)ccc2/C1=C\c1ccc([S+](C)[O-])cc1 (stereo not shown) [Sulindac]?
Answer: Nmoles formed [2]: 2.75 nmol; Units of activity ([2]; 50 μg membrane fraction): 5.1 nmoles of SS formed per hour; Flies alive (Drosophila; 3 day): approximately 95%; Flies alive (Drosophila; 6 day): ~60%; Survival rate (Drosophila; after 2 days): ~85%; Survival rate (Drosophila; after 3 days): ~57%; Dead cells (%) Exp 1 (PC-12 cells; [10]): 67%; Dead cells (%) Exp 2 (PC-12 cells; [10]): 74%; Dead cells (%) Exp 1 (PC-12 cells; [11]): 55%; Dead cells (%) Exp 2 (PC-12 cells; [11]): 39%; Dead cells (%) Exp 1 (PC-12 cells; [12]): 34%; Dead cells (%) Exp 2 (PC-12 cells; [12]): 35%; Cell death (PC-12 cells; [13]): approximately 35%; Cell survival (PC-12 cells; [13]): ~65%; Effect on viability of the cells (PC-12 cells; in the absence of MPP+): no effect on the viability of the cells; Motor performance (Rotarod performance times) (G93A transgenic mice; 300 PPM and 450 PPM groups vs G93A controls): significant improvement in motor performance; Mean survival time (G93A transgenic mice; 300 PPM in food from postnatal day 30): 135.17 ± 11.4 days; Increase in survival over control mice (G93A transgenic mice; 450 PPM in food): 7%; Average survival (G93A transgenic mice; 450 PPM in food from postnatal day 30): 131.17 ± 10.9 days; Scheffe for motor performance, Mean Diff. (G93A transgenic mice; Controls vs Sulindac 300 PPM): −59.443; Scheffe for motor performance, Mean Diff. (G93A transgenic mice; Controls vs Sulindac 450 PPM): −73.119; Scheffe for motor performance, Mean Diff. (G93A transgenic mice; Sulindac 300 PPM vs Sulindac 450 PPM): −13.676; Counts of motor neurons in spinal cord sections (G93A transgenic mice; vs G93A controls): significantly higher counts of motor neurons; TBHP concentration after which protection declined rapidly (Normal Lung cells [3]): 80 to 100 µM; Substrate for MsrA (reduction products on TLC) (MsrA [6]): substrate for MsrA; Substrate for MsrB (reduction products on TLC) (MsrB [7]): not a substrate for MsrB; Units of activity (MsrA [8]): 11.3 nmoles of SS formed per hour; Units of activity (MsrB [9]): 0 nmoles of SS formed per hour; Units of activity (fRMsr): 0 nmoles of SS formed per hour; Units of activity (fSMsr): 0 nmoles of SS formed per hour; Units of activity (MsrA1): <0.9 nmoles of SS formed per hour; OD340 (MsrA from E. coli; [14]): 0.660; Sulindac sulfide (MsrA from E. coli; [14]): 0 nmol; OD340 (MsrA from E. coli; [15]): 0.622; Sulindac sulfide (MsrA from E. coli; [15]): 5.8 nmol; Δ OD340 (MsrA from E. coli; [15]): 0.038; OD340 (MsrA from E. coli; [16]): 0.586; Sulindac sulfide (MsrA from E. coli; [16]): 11.2 nmol; Δ OD340 (MsrA from E. coli; [16]): 0.074; OD340 (MsrA from E. coli; [17]): 0.522; Sulindac sulfide (MsrA from E. coli; [17]): 21.0 nmol; Δ OD340 (MsrA from E. coli; [17]): 0.138; OD340 (MsrA from E. coli; Tube 6: MsrA 2 μl, no thioredoxin, 20 min): 0.684; OD340 (MsrA from E. coli; [18]): 0.626; Sulindac sulfide (MsrA from E. coli; [18]): 5.2 nmol; Δ OD340 (MsrA from E. coli; [18]): 0.034; OD340 (MsrA from E. coli; [19]): 0.531; Sulindac sulfide (MsrA from E. coli; [19]): 19.4 nmol; Δ OD340 (MsrA from E. coli; [19]): 0.129
